Laboratory results as given in paper PMC8243516, “Inhibition of lysosomal phospholipase A2 predicts drug-induced phospholipidosis” (Journal of Lipid Research, 2021).
Several values for one entry are separate records, joined by “and”; a condition that tells them apart may be missing. Identical values can stand only once. Like-named read-outs stand apart in the source and are kept apart here.

Key:
[1] = molecular target: T1, LPLA2 (Mus musculus, UniProt Q8VEB4); test: LPLA2 thermal stability measurement (SYPRO Orange Tm); format: binding
T1 construct: purchased Proteos Inc. (Kalamazoo, MI)
T1 sequence (Q8VEB4 34-412): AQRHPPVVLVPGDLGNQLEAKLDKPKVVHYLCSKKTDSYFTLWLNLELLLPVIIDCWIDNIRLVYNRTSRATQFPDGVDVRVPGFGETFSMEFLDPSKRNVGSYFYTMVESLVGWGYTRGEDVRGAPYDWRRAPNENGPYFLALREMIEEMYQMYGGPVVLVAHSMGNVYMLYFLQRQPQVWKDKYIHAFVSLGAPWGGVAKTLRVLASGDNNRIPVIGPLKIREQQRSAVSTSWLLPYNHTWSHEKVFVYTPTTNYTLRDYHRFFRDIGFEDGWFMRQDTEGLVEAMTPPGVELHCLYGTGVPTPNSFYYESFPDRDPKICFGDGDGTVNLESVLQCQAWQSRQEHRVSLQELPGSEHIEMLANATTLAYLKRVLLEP

[2] = system: phospholipidosis; details: phospholipidosis reported in vitro; Refs of Table 1; cited from earlier work
[3] = molecular target: T2, recombinant mouse LPLA2 (PLA2G15) (Mus musculus, UniProt Q8VEB4); test: Transacylase activity of LPLA2 (1-O-acyl-N-acetylsphingosine synthase, cell-free liposome assay); format: biochemical; details: for IC50: pH 4.5, DOPC/sulfatide liposomes
T2 construct: purchased Proteos Inc. (Kalamazoo, MI)
T2 sequence (Q8VEB4 34-412): T1 sequence (Q8VEB4 34-412)

[4] = ref Pubchem and chEMBL databases; cited from earlier work
[5] = 1-O-acyl N-acetylsphingosine synthase activity, read-out: LPLA2 IC50

Structure (SMILES)	(ΔTm)c-(ΔTm)d, difference in melting temperature of LPLA2 alone or in the presence of drug ([1]; N=3 ± SD)	In Vitro PLD [2]	IC50 [3, 5] [µM]	pKa (basic) [4]	(ΔTm)c-(ΔTm)d, difference in melting temperature of LPLA2 alone or in the presence of drug [1] [°C]	IC50 ([3]; LPLA2 IC50, 1-O-acyl N-acetylsphingosine synthase activity) [µM]	LPLA2 inhibition (in words) ([3]; acyl transferase activity)
CCC(C)(C)c1ccc(CC(C)CN2C[C@@H](C)O[C@@H](C)C2)cc1 (stereo partly drawn) [Amorolfine, 2R,6S-2,6-dimethyl-4-(2-{[4-(2-methylbutan-2-yl)phenyl]methyl}propyl)morpholine]	-0.30 ± 0.1 °C	Yes	41.5	8.49	–	–	–
O=C(O)c1ccccc1Nc1cccc(C(F)(F)F)c1 [Flufenamic acid, 2-{[3-(trifluoromethyl)phenyl]amino}benzoic acid]	-0.62 ± 0.3 °C	Yes	178	-2.1	–	–	–
CCN(CC)CCOC(=O)C(c1ccccc1)C1CCCCC1 (stereo not shown) [Drofenine, hexahydroadiphenine]	1.50 ± 0.1 °C	Yes	7.29	9.21	–	–	–
OC(CCN1CCCCC1)(c1ccccc1)c1ccccc1 [Pridinol, 1,1-diphenyl-3-(piperidin-1-yl)propan-1-ol]	0 °C	Yes	285	9.34	–	–	–
Cc1nc2ccccn2c(=O)c1CCN1CCC(C(=O)c2ccc(F)cc2)CC1 [Pirenperone, 3-[2-[4-(4-Fluorobenzoyl)-1-piperidinyl]ethyl]-2-methyl-4H-pyrido-[1,2-a] pyrimidin-4-one]	0.79 ± 0.0 °C and 0.79 ± 0.1 °C	Yes	233	8.02	–	–	–
O=c1[nH]c2ccccc2n1C1CCN(CCCC(c2ccc(F)cc2)c2ccc(F)cc2)CC1 [Pimozide, 1-{1-[4,4-bis(4-fluorophenyl)butyl]piperidin-4-yl}-2,3-dihydro-1H-1,3-benzodiazol-2-one]	–	Yes	10.6	8.38	0.26 ± 0.0	–	–
COC(=O)C1=C(C)NC(C)=C(C(=O)OC(C)(C)CN(C)CCC(c2ccccc2)c2ccccc2)C1c1cccc([N+](=O)[O-])c1 (stereo not shown) [Lercanidipine, 3-{1-[(3,3-diphenylpropyl)(methyl)amino]-2-methylpropan-2-yl} 5-methyl 2,6-dimethyl-4-(3-nitrophenyl)-1,4-dihydropyridine-3,5-dicarboxylate]	0.21 ± 0.3 °C	Yes	37.2	9.36	–	–	–
CCOc1cc(CC(=O)NC(CC(C)C)c2ccccc2N2CCCCC2)ccc1C(=O)O (stereo not shown) [Repaglinide, 2-ethoxy-4-[2-({3-methyl-1-[2-(1-piperidinyl)phenyl]butyl}amino)-2-oxoethyl]benzoic acid]	-0.84 ± 1.5 °C	Yes	86.5	4.28	–	–	–
c1ccc2c(c1)CCc1ccccc1C2 [Dibenzosuberane, 10,11-dihydro-5H-dibenzo [a, d] cycloheptene-833-48-7]	-1.94 ± 0.0 °C	Yes	346	10	–	–	–
CC(=O)N1CCN(c2ccc(OCC3COC(Cn4ccnc4)(c4ccc(Cl)cc4Cl)O3)cc2)CC1 (stereo not shown) [Ketoconazole, 1-[4-(4-{[2-(2,4-dichlorophenyl)-2-(1H-imidazole-1-ylmethyl)-1,3-dioxolan-4-yl]methoxy}phenyl)piperazin-1-yl]ethan-1-one]	0.42 ± 0.8 °C	Yes	39	6.75	–	–	–
CN(C)CC/C=C1/c2ccccc2Sc2ccc(Cl)cc21 [Chlorprothixene]	-2.0 ± 0.1 °C	Yes	7.78	9.76	–	–	–
COC(=O)[C@@H]1[C@H]2C[C@H]3c4[nH]c5ccccc5c4CCN3C[C@@H]2CC[C@@H]1O [Yohimbine, methyl (1S,15R,18S,19R,20S)-18-hydroxy-3,13-diazapentacyclo [11.8.0.0^2,^10.0^4,^9.0^15,^20]henicosa-2(10),4,6,8-tetraene-19-carboxylate]	–	Yes	–	7.65	1.52 ± 0.6	200	–
CN(C)CCC(c1ccc(Cl)cc1)c1ccccn1 (stereo not shown) [Chlorpheniramine, [3-(4-chlorophenyl)-3-(pyridin-2-yl)propyl] dimethylamine]	0.34 ± 0.0 °C	Yes	147	9.47	–	–	–
COc1ccnc(C[S+]([O-])c2nc3ccc(OC(F)F)cc3[nH]2)c1OC (stereo not shown) [Pantoprazole, 6-(difluoromethoxy)-2-[(3,4-dimethoxypyridin-2-yl)methanesulfinyl] -1H-1,3-benzodiazole]	0.25 ± 0.1 °C	Yes	6.23	3.55	–	–	–
CC(=O)[C@H]1CC[C@H]2[C@@H]3CCC4=CC(=O)CC[C@]4(C)[C@H]3CC[C@]12C [Progesterone, (1S,3aS,3bS,9aR,9bS,11aS)-1-acetyl-9a,11a-dimethyl-1H,2H,3H, 3aH,3bH,4H,5H, 7H,8H,9H,9 aH,9bH, 10H,11H,11aH-cyclopenta [a] phenanthren-7-one]	0.61 ± 0.1 °C	Yes	10.5	-4.8	–	–	–
OC[C@@H](O)[C@@H](O)[C@H](O)[C@H](O)CO [Mannitol, (2R,3R,4R,5R)-hexane-1,2,3,4,5,6-hexol]	1.0 ± 0.0 °C	Yes	160	12.3	–	–	–
CCCCNc1ccc(C(=O)OCCN(C)C)cc1 [Tetracaine, 2-(dimethylamino)ethyl 4-(butylamino)benzoate]	-1.20 ± 0.5 °C	Yes	333	8.42	–	–	–
CN(CCCN1c2ccccc2CCc2ccccc21)CC(=O)c1ccc(Cl)cc1 [Lofepramine, 2-[(3-{2-azatricyclo[9.4.0.0ˆ{3,8}]pentadeca-1(15),3,5,7,11,13-hexaen-2-yl}propyl) (methyl)amino]-1-(4-chlorophenyl) ethan-1-one]	0 °C	Yes	13.2	6.53	–	–	–
C=CCc1ccccc1OCC(O)CNC(C)C (stereo not shown) [Alprenolol, 1-(o-allylphenoxy)-3-(isopropylamino)-2-propanol]	-1.00 ± 0.1 °C	Yes	173	9.67	–	–	–
CC(C)NCC(O)COc1ccc(CCOCC2CC2)cc1 (stereo not shown) [Betaxolol, 1-{4-[2-(cyclopropylmethoxy)ethyl]phenoxy}-3-[(propan-2-yl)amino]propan-2-ol]	-1.29 ± 0.9 °C	Yes	–	9.67	–	–	no inhibitory activity
CN(C)CCOC(=O)C(c1ccccc1)C1(O)CCCC1 (stereo not shown) [Cyclopentolate, 2-(dimethylamino)ethyl 2-(1-hydroxycyclopentyl)-2-phenylacetate]	0.87 ± 0.6 °C	Yes	32.2	8.42	–	–	–
O=C(COc1ccc(Cl)cc1)N1CCN(Cc2ccc3c(c2)OCO3)CC1 [Fipexide, 1-(2-[4-chlorophenoxy]acetyl)-4-(3,4-methylenedioxybenzyl)piperazine]	-0.17 ± 0.0 °C	Yes	17.2	6.09	–	–	–
COc1ccc(CN(CCN(C)C)c2ccccn2)cc1 [Pyrilamine, N-[2-(dimethylamino)ethyl]-N-[(4-methoxyphenyl)methyl]pyridin-2-amine]	0 °C	Yes	214	8.76	–	–	–
CCOC(=O)c1cncn1[C@H](C)c1ccccc1 [Etomidate, ethyl 1-[(1R)-1-phenylethyl]-1H-imidazole-5-carboxylate]	-0.76 ± 0.3 °C	Yes	1150	4.54	–	–	–
COc1cc(C(=O)NS(=O)(=O)c2ccccc2C)ccc1Cc1cn(C)c2ccc(NC(=O)OC3CCCC3)cc12 [Zafirlukast, cyclopentyl N-[3-({2-methoxy-4-[(2-methylbenzenesulfonyl)carbamoyl]phenyl}methyl)-1-methyl-1H-indol-5-yl]carbamate]	1.80 ± 0.4 °C	Yes	3.1	-1.1	–	–	–
